Measured values from US9688723B2, “C4S proteoglycan specific transporter molecules” (PHI PHARMA SA, priority 2012, dated 2017).
Entries after “also recorded” stand apart in the source; their conditions may differ. Where no end group is shown, it is not given here. [ ]: non-standard residue; d: D form.

Columns and labels:
[1] = test system: Raw macrophage-derived cells; assay: Cell proliferation assay (phenol red, LDH content); format: cell-based; conditions: for Effect on growth of raw macrophage-derived cells: 2.5 μM, 48 hrs, phenol red / LDH content
Procedure: Use of the exemplary peptide of the invention as a carrier moiety was also examined in a cell proliferation assay. Raw macrophage-derived cells were incubated for 48 hrs with 2.5 μM of the indicated nucleoside analog or the analog as a conjugate with the RYF peptide in the presence of phenol red. Cultures containing dividing cells turn medium clear, while the medium of cultures containing in non-dividing cells remains dark (active compounds). Percentage growth was also determined by measuring the relative content of LDH (FIG. 11B). […] For example, the “ribo” and “tg” (Thioguanine) compounds have no effect at the concentration tested (2.5 μm), but become potently cytotoxic when conjugated to an exemplary peptide transporter of the invention (i.e., RYF).
The Experiment was repeated to investigate the effects of the L- or D-linkage on cytotoxic properties of the BAM moiety. The cells were incubated with 3′ amino β-D-arabinofuranoside either alone or in the form of a conjugate with the RYF peptide. […] However, once the 3′ position is conjugated to a D-entantiomer, it cannot be removed by a protease, and once incorporated into the DNA-strand, it will function to prevent further DNA elongation.
The experiment was repeated with 3′AdT (3′ amino deoxythymidine) and 3′ amino β-D-arabinofuranoside (Ribo). Cells were incubated with each of the compounds alone or as an N-terminally linked conjugate to the RYF peptide via either L-Glu (E) or D-Glu (e). The cells were then incubated for 72 hrs before LDH content was measured.

[2] = test system: chondroitin-4-sulfate (C4S); assay: Modified ELISA, peptide binding to coated proteoglycans
Procedure: The binding of the nine-mer peptides of the invention to C4S predicted by the models, in particular, as compared to the binding to other proteoglycans was tested using a modified ELISA protocol. ELISA plates were coated overnight with 1 mg/ml of heparin sulphate (HS), chondroitin-4-sulfate (C4S), chondroitin-6-sulfate (C6S) or hyaluronic acid (HA) in PBS. The wells were then washed with PBS and incubated for 1 hour at room temperature with 1 mg/ml of an exemplary peptide of the invention having the sequence RYFvRIKYRh (“RYF”; SEQ ID NO:2) or a standard TAT peptide. The plates were then thoroughly washed with PBS and subsequently photographed with a LUMASCOPE™ luminescent microscope. Images were then quantified using the ImageJ software (FIG. 4).
The same modified ELISA protocol was used to examine the impact of altering the chirality of the amino acid residues at positions 1, 5, 9 and 3 or 7 on the binding of the peptides to C4S. […] In FIG. 5, an upper case letter indicates an L-enantiomer and a lower case letter indicates a D-enantiomer.

CHO cells = assay: FITC-peptide binding to C4S expressing cells, fluorescence microscopy; format: cell-based; parameters: dose or concentration left out as unconfirmed; conditions: FITC conjugated peptide, 24 hrs
Source text: (§1) As explained throughout the description, the present molecules are able to selectively bind C4S over other proteoglycans.

Sog9 cells = assay: FITC-peptide binding to cells lacking C4S, fluorescence microscopy; format: cell-based; parameters: dose or concentration left out as unconfirmed; conditions: FITC conjugated peptide, 24 hrs
Source text: as §1

Macrophages = assay: FITC-RYF binding to chlorate pre-treated macrophages; format: cell-based; conditions: 0, 3, 10 or 30 μM chlorate for 16 hours
Procedure: The same fluorescent microscopy procedure was used to assess the binding of the FITC-RYF peptide on C4S expressing cells pre-treated with chlorate. Chlorate is an inhibitor of sulfotransferases, and, thus, chlorate treatment decreases or inhibits C4S expression. Macrophages were treated with 0, 3, 10 or 30 μM chlorate for 16 hours prior to washing, incubation with RYF (SEQ ID NO:2) peptide and photography as described above.

[3] = test system: cell lines from other lineages; assay: Cancer cell line screening panel, summary over other lineages; format: cell-based, human; conditions: 54 cell lines from other lineages
Procedure: (§2) The use of peptides of the invention as carrier molecules was investigated in a screening panel of human cancer cell lines. The human tumor cell lines of the cancer screening panel were grown in RPMI 1640 medium containing 5% fetal bovine serum and 2 mM L-glutamine. For a typical screening experiment, cells were inoculated into 96 well microtiter plates in volumes of 100 μL at plating densities ranging from 5,000 to 40,000 cells/well depending on the doubling time of individual cell lines. […] After 24 h, two plates of each cell line were fixed in situ with TCA to provide a measurement of the cell population at the time of drug addition (Tz). The experimental therapeutics were solubilized in dimethyl sulfoxide at 400-fold the desired final maximum test concentration and stored frozen prior to use. […] Bound stain was subsequently solubilized with 10 mM trizma base, and the absorbance was read on an automated plate reader at a wavelength of 515 nm. […] Using the seven absorbance measurements [time zero, (Tz), control growth, (C), and test growth in the presence of compound at the five concentration levels (Ti)], the percentage growth was calculated at each of the compound concentrations levels. Percentage growth inhibition was calculated as: [(Ti−Tz)/(C−Tz)]×100 for concentrations for which Ti≧Tz [(Ti−Tz)/Tz]×100 for concentrations for which Ti<Tz.

[4] = test system: leukemia/lymphoma cell lines; assay: Cancer cell line screening panel, summary over leukemia/lymphoma lines; format: cell-based, human; conditions: 6 leukemia/lymphoma cell lines
Procedure: as §2

Compound	Effect on growth of raw macrophage-derived cells [1]	Activity on cell growth (LDH content) ([1]; 72 hrs, alone or N-terminally linked to RYF via L-Glu (E) or D-Glu (e))	Binding to C4S ([2]; ELISA plates coated with 1 mg/ml C4S, 1 mg/ml peptide, 1 hour, room temperature)	Selective binding to C4S over other proteoglycans ([2]; versus heparin sulphate (HS), chondroitin-6-sulfate (C6S), hyaluronic acid (HA))	Binding to CHO cells expressing C4S (CHO cells)	Binding to Sog9 cells lacking C4S (Sog9 cells)	Binding to macrophages pre-treated with chlorate (Macrophages)	mean growth [3]	mean growth [4]
3′ amino β-D-arabinofuranoside [Ribo]	no effect	inactive							
RYFvRIKYRh (RYF[dV]RIKYR[dH])			specifically binds to the C4S proteoglycan	selectively binds C4S over the other proteoglycans tested; also recorded: specifically and selectively binds C4S over other proteoglycans	intense, uniform binding	did not bind; also recorded: failed to bind	binding correlated with chondroytine sulfate expression; also recorded: binding decreased with decreasing C4S expression		
Nc1nc2nc[nH]c2c(=S)[nH]1 [tg, Thioguanine]	no effect							86.65 % of untreated	44.13 % of untreated
